These results are taken from patent US7585859B2, “PDE4B inhibitors and uses therefor” (Plexxikon, Inc., priority 2004, dated 2009).

The target in experiment [1] is T1, PDE4B: The catalytic domain of human PDE4B from S152-S528 (Homo sapiens, UniProt Q07343).
T1 construct: His6 (N); thrombin cleavage site (N); made in house; host or cells: E. coli
The experiment is described as follows: PDE4 IC50 determination by Scintillation Proximity Assay, PDE4B. It is filed as biochemical. The essentials:
(§1)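 Scintillation counts reflected [^3H]AMP captured on yttrium silicate SPA beads after enzyme hydrolysed [^3H]cAMP for 30 min at 30°. PDE4B was used at 80 ng/ml and PDE4D at 4 ng/ml. IC50 values came from non-linear regression.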
On the technique in general: Scintillation proximity formats need no separation of bound from free tracer.

Experiment [2] deals with T2, full-length human PDE4D5 isozyme (Homo sapiens, UniProt Q08499).
T2 construct: The full-length human PDE4D5 isozyme; His6 (N); TEV cleavage site (N); made in house; host or cells: baculovirus infected insect cells (unpurified lysate)
The experiment is described as follows: PDE4 IC50 determination by Scintillation Proximity Assay, PDE4D5. It is filed as biochemical. The essentials: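 Unpurified His6-tagged full-length human PDE4D5 from baculovirus-infected insect cell lysate, 0.083 μl glycerol stock/ml, hydrolysed [3H]cAMP in Tris pH 7.5/MgCl/EGTA buffer, 30 min at 30°. ZnSO4/SPA beads stop; [3H]AMP counted. Controls: DMSO and roflumilast; 11-point duplicate curves, nonlinear-regression IC50.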

In experiment [3] the test system is TNFα levels in serum of LPS-challenged rats. The experiment is described as follows: Rat inhibition studies: serum TNFα after iv LPS challenge. It is filed as in vivo. Particulars: po, 2 h, 2 hr challenge delay, read-out: % inhibition r TNFα; for inhibition in vivo at 100 mg/kg: 100 mg/kg po. On the procedure: All studies were done with male rats CD (SD) IGS BR (Crl) (Charles River, France), which were grouped in to 5 animal groups.
At the end of the acclimatization period, the non-fasted rats were weighed, individually identified on the tail with a permanent marker and administered by oral (po) or interperitoneal (ip) route with either vehicle, reference or test compound in a volume of 10 mL/kg adapted to the body weight. The animals were gathered in groups of 5 animals in a polystyrene labeled cage with sawdust covered floors. 2-hours after vehicle, reference or test substance administration, rats received an intravenous (iv) injection of 0.1 mg/kg LPS in a volume of 1 mL/kg of body weight. 2 h after LPS challenge (or as indicated in Tables 3B and 4B), blood samples were collected into tubes without anticoagulant by retro-orbital puncture under gas (isoflurane) anesthesia. Samples were allowed to clot at room temperature for 5 to 10 min then put on ice until there were prepared by centrifugation (6000×g for 3 min at 4° C.) and stored at −20° C. until use. TNFα levels were measured in serum samples in duplicate by ELISA technique according to the manufacturer's procedure (Rat TNFα kit Quantikine M (RTA00, R&D System, France)). Data are reported as percent decrease in observed TNFα levels versus TNFa levels observed for vehicle dosed animal groups.

Another experiment addresses T3, PDE4D (Homo sapiens, UniProt Q08499).
T3 construct: PDE4D: The catalytic domain of human PDE4B from S3 16-V692; His6 (N); thrombin cleavage site (N); made in house; host or cells: E. coli
Put plainly: PDE4 IC50 determination by Scintillation Proximity Assay, PDE4D. It is filed as biochemical. The essentials: as §1

Experiment [4] addresses T4, full-length human PDE4B2 isozyme (Homo sapiens, UniProt Q07343).
T4 construct: The full-length human PDE4B2 isozyme; His6 (N); TEV cleavage site (N); made in house; host or cells: baculovirus infected insect cells (unpurified lysate)
The experiment is described as follows: PDE4 IC50 determination by Scintillation Proximity Assay, PDE4B2. It is filed as biochemical. The essentials:
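Unpurified His6-TEV-tagged full-length human PDE4B2 from baculovirus-infected insect cell lysate (2.5 μl of 50% glycerol stock/ml) hydrolysed [3H]cAMP in 50 mM Tris pH 7.5, 8.3 mM MgCl, 1.7 mM EGTA, 0.01% BSA for 30 min at 30°. Stopped with SPA beads in 18 mM ZnSO4; [3H]AMP scintillation counted, IC50 by non-linear regression.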

Experiment [5] relates to TNF alpha production in LPS-stimulated human blood (Buffy coat). The experiment is described as follows: TNF alpha production by stimulation with LPS in whole blood cultures. It is filed as cell-based. On the procedure:
Compounds were assayed to generate IC50 numbers as described in Example 54, using the following assay protocol (see Tables 3B and 4B for compounds and results).
Protocol • 1) Obtained 20 mM DMSO aliquots of desired concentrations of compounds (see Tables 3B and 4B for compounds tested and results). Placed 2 μl/well compound in DMSO in the top row of the dilution plate. Added 98 μl of RPMI 1640 media w/2.5% heat inactivated FBS.
2) Made the same media with 2% DMSO in it. Added 60 μl/well to well to make compound titration. Took 30 μl of top row and did a 1:3 dilution down the plate. In column 11 added 4 wells of 50 μM roflumilast and piclamilast. In column 12 added 2% DMSO media.
3) Transfered 20 μl/well into assay plates in duplicate.
4) Obtained human Buffy coat.
5) Diluted blood with 7 volumes of RPMI 1640 media with 1% P/S and 2.5% heat inactivated FBS (a 1:8 dilution)
6) Added160 μl/well of diluted blood to the assay plates.
7) Incubated for 1 hour at 37 degrees 5% CO2
8) Diluted LPS (which was already diluted to 1 mg/ml in PBS, 20 μl aliquots frozen −20 C.) to 10× desired final concentration to make a […] dilution (final concentration should be 100 ng/ml).
9) After 1 hour incubation added 20 μl/well of LPS to plates. A non-LPS treated background was also prepared. Samples were put on the shaker for a one minute 900 rpm.
10) Incubated for 4 hours in incubator.
11) After incubation, put on the shaker for a one minute 900 rpm and spun plate at 100 g for 10 minutes, Decel 5.
12) Carefully pipetted the top 75 μl supernatant into a new plate. Samples were frozen as needed.
Biosource hu-TNF ALPHA ELISA
• REAGENTS USED • DPBS 10×: VWR45000-428 (dilute 1:10 with Millipore Water) • TWEEN 20: FISHER BP337-500 • CAPTURE AND DETECTION ANTIBODIES: R&D DY510E • STREP-HRP: Biosource part SNN4004X • COLOR REAGENTS: R&D DY994 • STOP SOLUTION: from chemistry, or R&D DY999 • 1) Thawed samples to RT as needed. • 2) Added 50 μl Incubation buffer/well. • 3) Added 50 μl blood samples +50 μl Diluent buffer • 4) Incubated 2 hours at room temp. • 5) Washed the plate 4× with 300 μl/well wash buffer with microfill. Wash buffer was DPBS with 0.05% Tween pH 7.2-7.4 • 6) Added 100 μl biotinylated anti-TNFalpha • 7) Incubateed 1 hours at room temp. • 8) Washed the plate 4× with 300 μl/well wash buffer with microfill. Wash buffer was DPBS with 0.05% Tween pH 7.2-7.4 • 9) Added^100 μl Streptavidin-HRP working solution • 10) Incubated for 30 minutes at room temp. • 11) Washed the plate 4× with 300 μl/well wash buffer with microfill. Wash buffer was DPBS with 0.05% Tween pH 7.2-7.4 • 12) Added 100 μl Chromagen • 13) Incubated in the dark for 30 minutes until the blue color developed satisfactorily. • 14) Added 100 μl/well stop solution (2 N H2SO4). • 15) Read plate on WallacVictor at 450 nm for 0.1 sec/well

The mark [6] stands for this setting: Table 1B, Formula I compounds, read-out: IC50 PDE4B.
Where [7] appears, read: Table 1B, Formula I compounds, read-out: IC50 PDE4D5.
Where [8] appears, read: Table 1B, Formula I compounds, read-out: IC50 PDE4D.
[9] abbreviates: Table 1B, Formula I compounds, read-out: IC50 PDE4B2.
Setting [10] is: Homo sapiens, Table 1B, Formula I compounds, read-out: IC50 h TNFα.
[11] abbreviates: first part of Table 2B (2-1 to 2-22), read-out: IC 50 vs. indicated assay PDE4B.
Setting [12] is: first part of Table 2B (2-1 to 2-22), read-out: IC 50 vs. indicated assay PDE4D5.
The mark [13] stands for this setting: first part of Table 2B (2-1 to 2-22), read-out: IC 50 vs. indicated assay PDE4B2.
Where [14] appears, read: human whole blood, LPS 100 ng/ml, read-out: IC 50 vs. indicated assay h TNFα.
The mark [15] stands for this setting: second part of Table 2B (2-23 to 2-103), column 3, column is PDE4B in first part, read-out: IC 50 vs. indicated assay h TNFα.
Where [16] appears, read: second part of Table 2B (2-23 to 2-103), column 5, column is PDE4D in first part, read-out: IC 50 vs. indicated assay h TNFα.
Where [17] appears, read: second part of Table 2B (2-23 to 2-103), column 4, column is PDE4B2 in first part, read-out: IC 50 vs. indicated assay h TNFα.

Where two headings read alike, the source gives them in different places.

T2 sequence (Q08499 1-745 isoform Q08499-6): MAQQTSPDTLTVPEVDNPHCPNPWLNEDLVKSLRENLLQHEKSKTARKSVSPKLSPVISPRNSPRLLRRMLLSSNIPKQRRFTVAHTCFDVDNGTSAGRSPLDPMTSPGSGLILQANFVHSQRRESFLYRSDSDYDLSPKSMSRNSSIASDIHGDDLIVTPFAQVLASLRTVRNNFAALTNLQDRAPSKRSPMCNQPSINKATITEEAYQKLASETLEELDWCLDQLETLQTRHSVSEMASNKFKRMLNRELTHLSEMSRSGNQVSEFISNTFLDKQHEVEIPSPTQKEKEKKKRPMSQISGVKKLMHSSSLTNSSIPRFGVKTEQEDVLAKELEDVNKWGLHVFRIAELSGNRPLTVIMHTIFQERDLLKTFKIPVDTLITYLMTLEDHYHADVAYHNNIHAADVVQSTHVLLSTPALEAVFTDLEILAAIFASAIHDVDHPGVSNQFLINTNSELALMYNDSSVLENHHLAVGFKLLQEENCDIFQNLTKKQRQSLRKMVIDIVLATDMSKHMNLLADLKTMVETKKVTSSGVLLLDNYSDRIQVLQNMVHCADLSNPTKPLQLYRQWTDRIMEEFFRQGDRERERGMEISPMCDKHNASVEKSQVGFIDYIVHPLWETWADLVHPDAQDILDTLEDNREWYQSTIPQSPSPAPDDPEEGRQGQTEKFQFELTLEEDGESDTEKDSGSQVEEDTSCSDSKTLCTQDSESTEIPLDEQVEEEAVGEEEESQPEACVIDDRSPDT
T4 sequence (Q07343 1-564 isoform Q07343-2): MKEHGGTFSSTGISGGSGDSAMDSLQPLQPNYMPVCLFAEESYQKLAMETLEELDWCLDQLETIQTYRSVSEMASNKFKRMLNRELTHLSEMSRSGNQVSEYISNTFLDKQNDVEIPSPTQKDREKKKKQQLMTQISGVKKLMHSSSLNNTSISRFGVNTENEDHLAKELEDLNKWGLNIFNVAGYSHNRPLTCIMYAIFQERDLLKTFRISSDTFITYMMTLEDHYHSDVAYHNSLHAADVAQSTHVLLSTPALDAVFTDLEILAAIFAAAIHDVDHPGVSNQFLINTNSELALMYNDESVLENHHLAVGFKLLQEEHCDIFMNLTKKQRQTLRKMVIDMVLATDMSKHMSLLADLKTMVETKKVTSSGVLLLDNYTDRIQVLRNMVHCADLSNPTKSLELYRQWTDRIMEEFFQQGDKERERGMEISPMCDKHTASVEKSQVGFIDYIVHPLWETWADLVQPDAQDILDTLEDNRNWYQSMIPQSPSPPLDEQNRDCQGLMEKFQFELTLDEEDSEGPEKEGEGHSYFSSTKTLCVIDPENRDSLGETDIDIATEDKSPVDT
T1 sequence (Q07343 with tags, fused parts or gaps): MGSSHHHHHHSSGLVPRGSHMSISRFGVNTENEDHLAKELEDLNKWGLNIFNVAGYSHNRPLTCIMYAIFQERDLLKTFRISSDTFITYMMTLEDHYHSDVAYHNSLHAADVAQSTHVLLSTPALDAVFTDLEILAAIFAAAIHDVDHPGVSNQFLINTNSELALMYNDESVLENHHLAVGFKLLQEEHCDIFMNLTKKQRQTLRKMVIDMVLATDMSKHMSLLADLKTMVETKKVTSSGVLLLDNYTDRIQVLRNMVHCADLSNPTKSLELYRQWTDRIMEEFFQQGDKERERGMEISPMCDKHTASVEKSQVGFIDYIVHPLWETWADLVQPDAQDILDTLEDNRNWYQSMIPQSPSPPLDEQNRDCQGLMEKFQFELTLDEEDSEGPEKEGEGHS
T3 sequence (Q08499 380-756): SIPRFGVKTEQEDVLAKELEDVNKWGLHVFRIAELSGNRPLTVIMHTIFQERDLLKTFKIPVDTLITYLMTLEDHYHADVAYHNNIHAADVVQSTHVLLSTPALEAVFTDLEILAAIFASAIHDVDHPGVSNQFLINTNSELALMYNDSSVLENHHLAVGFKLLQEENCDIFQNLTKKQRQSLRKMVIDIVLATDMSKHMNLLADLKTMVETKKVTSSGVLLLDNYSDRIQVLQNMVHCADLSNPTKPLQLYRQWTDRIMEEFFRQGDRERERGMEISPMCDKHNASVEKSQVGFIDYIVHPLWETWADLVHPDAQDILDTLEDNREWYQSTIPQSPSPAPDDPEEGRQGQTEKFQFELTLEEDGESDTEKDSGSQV

On to `N#Cc1c(NC2CC2)sc(C(=O)c2cc(-c3ccccc3)no2)c1N` [Compound 1-186, 4-Amino-2-cyclopropylamino-5-(3-phenyl-isoxazole-5-carbonyl)-thiophene-3-carbonitrile], for which the IC50 was below 10 µM in experiment [1] (setting [6]), below 10 µM in experiment [2] (setting [7]), above 10 µM at PDE4D (setting [8]) and below 10 µM in experiment [4] (setting [9]). Further, the inhibition in vivo at 100 mg/kg in experiment [3] (rat in vivo inhibition assay) is below 20%.
In the case of `N#Cc1c(NC2CCCC2)sc(C(=O)c2cc(-c3ccc(F)cc3)no2)c1N` [Compound 1-221, 4-Amino-2-cyclopentylamino-5-[3-(4-fluoro-phenyl)-isoxazole-5-carbonyl]-thiophene-3-carbonitrile], the IC50 in experiment [1] (setting [6]) was below 10 µM; in experiment [2] (setting [7]), above 10 µM; on PDE4D (setting [8]) it was above 10 µM; in experiment [4] (setting [9]), below 10 µM. Further, in experiment [3] (rat, 50 mg), the inhibition in vivo at 50 mg was below 20%.
Regarding `Cc1c(NC2CCCC2)sc(C(=O)c2cc(-c3ccccc3)no2)c1N` [Compound 1-240, (3-Amino-5-cyclopentylamino-4-methyl-thiophen-2-yl)-(3-phenyl-isoxazol-5-yl)-methanone], the IC50 in experiment [1] (setting [6]), in experiment [2] (setting [7]), in experiment [5] (setting [10]) and in experiment [4] (setting [9]) was below 10 µM each time.
As to `CCc1c(NC2CCCC2)sc(C(=O)c2cc(-c3ccccc3)no2)c1N` [Compound 1-241, (3-Amino-5-cyclopentylamino-4-ethyl-thiophen-2-yl)-(3-phenyl-isoxazole-5-yl)-methanone], the IC50 in experiment [1] (setting [6]) is below 10 µM; in experiment [2] (setting [7]), above 10 µM; in experiment [5] (setting [10]) it was above 10 µM; in experiment [4] (setting [9]), below 10 µM.
Turning to `COc1ccccc1Nc1sc(C(=O)c2cc(-c3ccccc3)no2)c(N)c1C#N` [Compound 1-242], the IC50 in experiment [1] (setting [6]), in experiment [2] (setting [7]), in experiment [5] (setting [10]) and in experiment [4] (setting [9]) was below 10 µM throughout.
`CCC(C)Nc1sc(C(=O)c2cc(-c3ccc(Cl)c(Cl)c3)no2)c(N)c1C(N)=O` (stereo not shown) [Compound 1-249, 4-Amino-2-sec butylamino-5-[3-(3,4-dichloro-phenyl)-isoxazole-5-carbonyl]-thiophene-3-carboxylic acid amide]: the IC50 is below 10 µM in experiment [1] (setting [6]), above 10 µM in experiment [2] (setting [7]), above 10 µM in experiment [5] (setting [10]) and below 10 µM at PDE4D (setting [8]).
`NC(=O)c1c(N)sc(C(=O)c2cc(-c3ccccc3)no2)c1N` [Compound 1-255, 2,4-Diamino-5-(3-phenyl-isoxazole-5-carbonyl)-thiophene-3-carboxylic acid amide]: the IC50 in experiment [2] (setting [7]), in experiment [5] (setting [10]) and in experiment [4] (setting [9]) was above 10 µM in each case.
With `Nc1nc(NC2CCCC2)sc1C(=O)c1cc(-c2ccccc2)no1` [Compound 2-9, (4-Amino-2-cyclopentylamino-thiazol-5-yl)-(3-phenyl-isoxazol-5-yl)-methanone], the IC50 in experiment [1] (setting [11]) is below 10 µM; in experiment [2] (setting [12]), below 10 µM; at PDE4D (first part of Table 2B (2-1 to 2-22), read-out: IC 50 vs. indicated assay PDE4D) it was below 10 µM; in experiment [4] (setting [13]), below 10 µM. In experiment [3] (rat in vivo, percent decrease in TNFα versus vehicle), the inhibition in vivo at 100 mg/kg was above 20%.
Turning to `Nc1nc(NC2CCCC2)sc1C(=O)c1cc(-c2ccccc2)cs1` [Compound 2-19, (4-Amino-2-cyclopentylamino-thiazol-5-yl)-(4-phenyl-thiophen-2yl)-methanone], the IC50 in experiment [1] (setting [11]), in experiment [2] (setting [12]), in experiment [5] (setting [14]) and in experiment [4] (setting [13]) was below 10 µM each time.
Take `Nc1nc(Nc2ccc(C(=O)O)cc2)sc1C(=O)c1ccccc1` [Compound 2-35, 4-(4-Amino-5-benzoyl-thiazol-2-ylamino)-benzoic acid]: the IC50 is below 10 µM in experiment [1] (setting [15]), above 10 µM in experiment [5] (setting [14]), below 10 µM at PDE4D (setting [16]) and below 10 µM in experiment [4] (setting [17]).
With `Nc1nc(NC2CCCC2)sc1C(=O)c1ccc(Oc2ccccc2)cc1` [Compound 2-76, (4-Amino-2-cyclopentylamino-thiazol-5-yl)-(4-phenoxy-phenyl)-methanone], the IC50 was below 10 µM in experiment [1] (setting [15]), above 10 µM in experiment [5] (setting [14]), below 10 µM on PDE4D (setting [16]) and below 10 µM in experiment [4] (setting [17]).
